Where “and” joins values, the source holds several entries; their conditions need not be identical. Equal values may be shown once. Read-outs that look alike come from different tables or passages of the source.

One data set concerns L. donovani amastigote. Also on record: method as in PMID 26014945, PMID 29357372, PMID 28241112, PMID 19937668, PMID 19060927. The note with it: cited from earlier work.
A further data set relates to TcSir2rp3. Set-up: method as in PMID 26014945, PMID 29357372, PMID 28241112, PMID 19937668, PMID 19060927. Conditions: cited from earlier work.
In a further data set the test system is T. cruzi epimastigote. Set-up: method as in PMID 26014945, PMID 29357372, PMID 28241112, PMID 19937668, PMID 19060927. Conditions: cited from earlier work.
For data set [1], the target named is T1, TbSir2rp1 (Trypanosoma brucei brucei, UniProt Q57V41).
T1 construct: The TbSir2rp1 gene was cloned into the pET24(+) expression plasmid (Novagen); His tag; made in house; host or cells: Escherichia coli BL21-Codon Plus (DE3)-RIL
T1 sequence (Q57V41 1-351): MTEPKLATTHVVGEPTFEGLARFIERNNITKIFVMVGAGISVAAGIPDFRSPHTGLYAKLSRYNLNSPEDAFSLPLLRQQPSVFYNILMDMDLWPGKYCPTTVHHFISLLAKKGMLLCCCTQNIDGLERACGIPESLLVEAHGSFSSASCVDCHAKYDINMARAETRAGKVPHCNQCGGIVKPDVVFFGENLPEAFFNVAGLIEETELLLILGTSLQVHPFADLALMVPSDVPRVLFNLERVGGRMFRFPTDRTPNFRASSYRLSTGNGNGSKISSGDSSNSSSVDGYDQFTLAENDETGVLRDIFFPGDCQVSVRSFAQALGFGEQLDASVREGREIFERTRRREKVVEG
Description: biochemical. Conditions: for ligand efficiency (LE): LE = –R·T·ln(IC50)/HAC, from TbSir2rp1 IC50; for IC50: TbSir2rp1, enzyme 1 μM, NAD+ 100 μM, acetylated peptide 50 μM, 37 °C, 2 h, read-out: IC50; for Hill coefficient (nH): concentration–response curve against TbSir2rp1. The protocol:
The acetylated peptide corresponds to the sequence Abz-Gly-Pro-acetylLys-SerGln–EDDnp, where Abz is ortho-aminobenzoic acid and EDDnp is N-[2,4-dinitrophenyl]ethylenediamine.
To halt the deacetylation reaction, 4 mM nicotinamide was used. For each pair of wells in the 96-well plate, 0.2 mg/mL of trypsin was added to only one well to hydrolyze the acetylated peptide, enabling fluorescence emission. Fluorescence was measured immediately at 420 nm with excitation at 320 nm using a SpectraMax M2 microplate reader (Molecular Devices).
Deacetylation activity was determined by the difference between the well where trypsin was added and the well without trypsin. All assays were performed in triplicate, and activity values were reported as means ± standard deviations with outliers identified and excluded from the calculations. Statistical analyses were conducted using Prism 7 software (GraphPad).
The screening of the 90 fragments was performed at a single concentration of 500 μM in triplicate. The enzyme was used at 1 μM, and the substrates NAD^+ and acetylated peptide were used at 100 and 50 μM, respectively. Incubation was carried out at 37.0 °C for 2 h. Each fragment was added to a pair of wells, with trypsin being added to only one well, as previously described for inhibitory activity calculation. […] Ligand efficiency (LE) was calculated as LE = –R·T·ln(IC50)/HAC using IC50 values instead of KD for comparison. […] The inhibition mechanism was characterized using Lineweaver–Burk plots under five concentrations of each substrate and three concentrations of the fragment. IC50 values were determined with at least seven different concentrations, and Lineweaver–Burk analysis used six concentrations.

Data set [2] relates to human lung cells (WI-26VA-4). Also on record: method as in PMID 33295837. The note with it: WI-26VA-4 human lung cells; cited from earlier work.
Data set [3] has as its target T1, TbSir2rp1. The data set is described as follows: biochemical. The class given is biochemical.
Another data set relates to T. cruzi amastigote. Also on record: method as in PMID 26014945, PMID 29357372, PMID 28241112, PMID 19937668, PMID 19060927. Conditions: cited from earlier work.
Another data set deals with infected mice. Conditions: cited from earlier work.
In the next data set the test system is T. brucei. Also on record: method as in PMID 7097719. The note with it: cited from earlier work.
For a further data set, the system named is L. infantum amastigote. Set-up: method as in PMID 26014945, PMID 29357372, PMID 28241112, PMID 19937668, PMID 19060927. The note with it: cited from earlier work.
The test system of a further data set is LiSir2rp1. Set-up: method as in PMID 26014945, PMID 29357372, PMID 28241112, PMID 19937668, PMID 19060927. Conditions: cited from earlier work.
In the next data set the test system is T. cruzi. Set-up: method as in PMID 34936867. The note with it: T. cruzi-infected mice; cited from earlier work.
Setting [4] is: read-out: % Inhibition TbSir2rp1, Table S2, complete fragment library, single concentration of 500 μM.
[5] abbreviates: read-out: % Inhibition TbSir2rp1 at 500 μM, Table 1, fragment 500 μM, triplicate, mean ± SD.

`O=c1[nH]c(=S)[nH]c(-c2ccccc2)c1Cc1c(O)ccc2ccccc12` [cambinol]: the EC50 in the data set on L. donovani amastigote is 1.7 µM.

Regarding `CC(C(=O)Nc1cccc(/N=C/c2c(O)ccc3ccccc23)c1)c1ccccc1` (stereo not drawn) [salermide], the IC50 with TcSir2rp3 is 1 µM. Besides, the EC50 with T. cruzi epimastigote was 10.6 µM.

Consider `Cc1ccc(S(=O)(=O)N/N=C/c2cccs2)cc1` [Fragment 2], for which, on TbSir2rp1 [1], the “ligand efficiency (LE)” value is on record as 0.31; the IC50 was < 100 µM and 77.9 µM; the “Hill coefficient (nH)” value is given as 0.77. Moreover, on TbSir2rp1 [1] (setting [4]), the inhibition at 500 µM was 84 ± 2.3%. Besides, the inhibition at 500 µM at TbSir2rp1 [1] (setting [5]) was found to be 83.7 ± 2.3%. Further, the CC50 in data set [2] is 226 µM.

Regarding `Cc1cc(C)nc(NS(=O)(=O)c2ccc(N)cc2)n1` [sulfamethazine], the “% inhibition at 100 µM” value at TbSir2rp1 [3] (Table S3, sulfonyl-hydrazone series, single concentration of 100 μM) is on record as “Inconc”.

For the compound `O=C1c2cccc3cccc(c23)C(=O)N1CCCNCCCCNCCCNCCCN1C(=O)c2cccc3cccc(c23)C1=O` [BNIPSpd], the EC50 with T. cruzi epimastigote is 13.3 µM; with T. cruzi amastigote, 2.8 µM.

For `Cc1c(O)c2ccccc2c2nc(N)sc12` [Fragment 1], on TbSir2rp1 [1], the “ligand efficiency (LE)” value is recorded as 0.41, the IC50 is 17.8 µM and the “Hill coefficient (nH)” value was 1.22. In addition, the inhibition at 500 µM at TbSir2rp1 [1] (setting [4]) turned out to be 99 ± 0.47%. For the same compound, the inhibition at 500 µM on TbSir2rp1 [1] (setting [5]) is 99 ± 0.5%. Moreover, the maximum tolerated dose in the data set on infected mice is 50 mg/kg. Also, the minimum lytic concentration in the data set on T. brucei was 100 µM.

`CC(C)Cc1ccc(C(C)C(=O)O)cc1` (stereo not drawn) [CC(C1=CC=C(CC(C)C)C=C1)C(O)=O]: the inhibition at 500 µM on TbSir2rp1 [1] (setting [4]) was -2.1 ± 0.21%.

As for `O=[N+]([O-])c1cccc(C2=NCCO2)c1` [O=[N+](C1=CC=CC(C2=NCCO2)=C1)[O-]], the inhibition at 500 µM at TbSir2rp1 [1] (setting [4]) came to 44 ± 24%.

For the compound `CCC1(CC)C(=O)NC(=O)NC1=O` [O=C(NC(C1(CC)CC)=O)NC1=O], the inhibition at 500 µM at TbSir2rp1 [1] (setting [4]) was 19 ± 6%.

On to `CS(=O)(=O)Nc1cccc(-c2nc3ccccc3[nH]2)c1`, for which the inhibition at 500 µM on TbSir2rp1 [1] (setting [4]) was -0.8 ± 4.1%.

In the case of `Cn1cnc2c1c(=O)[nH]c(=O)n2C` [O=C(N1)N(C)C2=C(N(C)C=N2)C1=O], at TbSir2rp1 [1] (setting [4]), the inhibition at 500 µM worked out at 17 ± 4.4%.

`C/C(=N\NC(N)=O)c1ccncc1` [C/C(C1=CC=NC=C1)=N\NC(N)=O]: the inhibition at 500 µM on TbSir2rp1 [1] (setting [4]) was 31 ± 13%.

`Nc1cccc([N+](=O)[O-])c1` [NC1=CC=CC([N+]([O-])=O)=C1]: on TbSir2rp1 [1] (setting [4]), the inhibition at 500 µM turned out to be 27 ± 0.91%.

Regarding `CN1C(=O)CN=C(c2ccccc2)c2cc(Cl)ccc21`, on TbSir2rp1 [1] (setting [4]), the inhibition at 500 µM turned out to be 37 ± 2.2%.

Take `C1CN2CCN1CC2` [N1(CC2)CCN2CC1]: the inhibition at 500 µM on TbSir2rp1 [1] (setting [4]) was 2.7 ± 2.6%.

In the case of `Cc1ccc(S(=O)(=O)n2cccn2)cc1` [CC1=CC=C(S(N2N=CC=C2)(=O)=O)C=C1], the inhibition at 500 µM at TbSir2rp1 [1] (setting [4]) amounted to 8.4 ± 20%.

On to `N/C(=N/c1ccccc1)Nc1ccccc1` [N/C(NC1=CC=CC=C1)=N/C2=CC=CC=C2], for which, on TbSir2rp1 [1] (setting [4]), the inhibition at 500 µM came to 2.6 ± 1.1%.

On to `CNC(=O)c1c(C(C)C)oc2nc(N3CCCC3)ccc12` [O=C(NC)C1=C(C(C)C)OC2=C1C=CC(N3CCCC3)=N2], for which the inhibition at 500 µM on TbSir2rp1 [1] (setting [4]) was 47 ± 10%.

Consider `CC(NC(=O)c1ccccc1/N=C/c1c(O)ccc2ccccc12)c1ccccc1` (stereo not drawn) [sirtinol], for which the EC50 was 30 µM in the data set with L. infantum amastigote and 5 µM with L. donovani amastigote. In the data set with LiSir2rp1, the IC50 is 194 µM.

For `O=C(/C=C/c1cccc2c1oc1ccccc12)NO` [TB56], in the data set on T. cruzi, the parasite burden entry is listed as “reduced parasite burden”.

As for `Cc1cc(NS(=O)(=O)c2ccc(N)cc2)no1` [sulfamethoxazole, reference compound], the “inhibition of TbSir2rp1 (in words)” value against TbSir2rp1 [1] is “did not induce any inhibition”. In addition, on TbSir2rp1 [3] (read-out: % inhibition at 100 µM, Table S3, sulfonyl-hydrazone series, single concentration of 100 μM), the inhibition at 100 µM worked out at 2 ± 5.3%.

Consider `CN(C)c1ccc(/C=N/c2nnc(-c3ccccc3)o2)cc1` [Fragment 4], for which, on TbSir2rp1 [1], the “ligand efficiency (LE)” value was 0.25, the IC50 is 94.4 µM and the “Hill coefficient (nH)” value was determined as 1.10. Besides, the inhibition at 500 µM at TbSir2rp1 [1] (setting [4]) came out at 78 ± 2.3%. Besides, the inhibition at 500 µM at TbSir2rp1 [1] (setting [5]) was 78.4 ± 2.3%.

As for `CCOC1NN=C(c2ccccc2)N1` (stereo not drawn) [CCOC1NC(C2=CC=CC=C2)=NN1], on TbSir2rp1 [1] (setting [4]), the inhibition at 500 µM is -3.3 ± 1.9%.

In the case of `CCn1cc(C(=O)O)c(=O)c2ccc(C)nc21` [O=C(C1=CN(CC)C2=C(C=CC(C)=N2)C1=O)O], the inhibition at 500 µM at TbSir2rp1 [1] (setting [4]) is -6.5 ± 2.2%.

Regarding `CC(C)NCC1CCc2cc(CO)c([N+](=O)[O-])cc2N1` (stereo not drawn), the inhibition at 500 µM at TbSir2rp1 [1] (read-out: % Inhibition TbSir2rp1) was determined as 24 ± 7.9%.

In the case of `O=C1Cc2cnccc2CN1` [Fragment 8], the inhibition at 500 µM at TbSir2rp1 [1] (setting [4]) was 55 ± 4.8%; at TbSir2rp1 [1] (setting [5]), 55.5 ± 4.8%.

Turning to `CCC1(c2ccccc2)C(=O)NC(=O)NC1=O` [O=C(NC(C1(CC)C2=CC=CC=C2)=O)NC1=O], on TbSir2rp1 [1] (setting [4]), the inhibition at 500 µM came to 2.7 ± 1.6%.

As for `CC(=O)NCCN1C(=O)CNC1=O` [O=C(CN1)N(CCNC(C)=O)C1=O], the inhibition at 500 µM at TbSir2rp1 [1] (setting [4]) turned out to be 5.8 ± 3.4%.

On to `Nc1ccc(S(=O)(=O)c2ccc(N)cc2)cc1` [NC1=CC=C(S(C2=CC=C(N)C=C2)(=O)=O)C=C1], for which the inhibition at 500 µM at TbSir2rp1 [1] (setting [4]) came out at 48 ± 4.1%.

In the case of `Sc1nnc(Cc2ccccc2)s1` [SC1=NN=C(CC2=CC=CC=C2)S1], the inhibition at 500 µM at TbSir2rp1 [1] (setting [4]) came out at 9.4 ± 1%.

Consider `CS(=O)(=O)Nc1cccc(-c2ccccc2)c1` [CS(NC1=CC=CC(C2=CC=CC=C2)=C1)(=O)=O], for which the inhibition at 500 µM on TbSir2rp1 [1] (setting [4]) amounted to 35 ± 3.7%.

On to `CCOC(=O)c1c(C)oc2nc(Cl)ccc12` [CC1=C(C(OCC)=O)C2=C(O1)N=C(Cl)C=C2], for which the inhibition at 500 µM at TbSir2rp1 [1] (setting [4]) was -29 ± 18%.

For the compound `NC(=O)N1c2ccccc2CC(=O)c2ccccc21` [O=C(N)N1C2=CC=CC=C2CC(C3=CC=CC=C31)=O], at TbSir2rp1 [1] (setting [4]), the inhibition at 500 µM amounted to 0.85 ± 6.5%.

As to `COC1=CC(=O)c2ccccc2C1=O` [O=C(C1=C2C=CC=C1)C(OC)=CC2=O], on TbSir2rp1 [1] (setting [4]), the inhibition at 500 µM was 44 ± 3.7%.

Take `Nc1ccc(S(N)(=O)=O)cc1` [O=S(C1=CC=C(N)C=C1)(N)=O]: the inhibition at 500 µM at TbSir2rp1 [1] (setting [4]) was -4.7 ± 2.3%.

For the compound `CCOC(=O)c1c(C)oc2ncc(Br)cc12` [CC1=C(C(OCC)=O)C2=C(O1)N=CC(Br)=C2], the inhibition at 500 µM at TbSir2rp1 [1] (setting [4]) was -7.1 ± 9.1%.
